In the supplement of paper PMC11451515:

Tested on: P12-Ichikawa
Assay: cell viability relative to DMSO control; higher = less cytotoxic
Conditions: 48 h
Summary of the method: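 Three leukemia lines were tested: NOMO1 and SEM at 500 cells/well and P12-Ichikawa at 1000 cells/well. Each was adapted for at least four passages in each medium and seeded in 5 μl in 1536-well plates, and library compounds in DMSO were pin-dosed from 47 μM to 0.79 nM in 11 threefold steps. After 48 h at 37°C, CellTiter-Glo One luminescence was read. Viability is a percentage relative to DMSO wells on each plate, with cell-free wells as background.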

[1] = HPLM + 10% dialyzed FBS, 0.000781 µM
[2] = HPLM + 10% dialyzed FBS, 0.00234 µM
[3] = HPLM + 10% dialyzed FBS, 0.00702 µM
[4] = HPLM + 10% dialyzed FBS, 0.0211 µM
[5] = HPLM + 10% dialyzed FBS, 0.0632 µM
[6] = HPLM + 10% dialyzed FBS, 0.19 µM
[7] = HPLM + 10% dialyzed FBS, 0.569 µM
[8] = HPLM + 10% dialyzed FBS, 1.71 µM
[9] = HPLM + 10% dialyzed FBS, 5.12 µM
[10] = HPLM + 10% dialyzed FBS, 15.4 µM
[11] = HPLM + 10% dialyzed FBS, 46.1 µM
[12] = RPMI 5 mM glucose + 10% FBS, 0.000781 µM
[13] = RPMI 5 mM glucose + 10% FBS, 0.00234 µM
[14] = RPMI 5 mM glucose + 10% FBS, 0.00702 µM
[15] = RPMI 5 mM glucose + 10% FBS, 0.0211 µM
[16] = RPMI 5 mM glucose + 10% FBS, 0.0632 µM
[17] = RPMI 5 mM glucose + 10% FBS, 0.19 µM
[18] = RPMI 5 mM glucose + 10% FBS, 0.569 µM
[19] = RPMI 5 mM glucose + 10% FBS, 1.71 µM
[20] = RPMI 5 mM glucose + 10% FBS, 5.12 µM
[21] = RPMI 5 mM glucose + 10% FBS, 15.4 µM
[22] = RPMI 5 mM glucose + 10% FBS, 46.1 µM
[23] = RPMI 5 mM glucose + 10% dialyzed FBS, 0.000781 µM
[24] = RPMI 5 mM glucose + 10% dialyzed FBS, 0.00234 µM
[25] = RPMI 5 mM glucose + 10% dialyzed FBS, 0.00702 µM
[26] = RPMI 5 mM glucose + 10% dialyzed FBS, 0.0211 µM
[27] = RPMI 5 mM glucose + 10% dialyzed FBS, 0.0632 µM
[28] = RPMI 5 mM glucose + 10% dialyzed FBS, 0.19 µM
[29] = RPMI 5 mM glucose + 10% dialyzed FBS, 0.569 µM
[30] = RPMI 5 mM glucose + 10% dialyzed FBS, 1.71 µM
[31] = RPMI 5 mM glucose + 10% dialyzed FBS, 5.12 µM
[32] = RPMI 5 mM glucose + 10% dialyzed FBS, 15.4 µM
[33] = RPMI 5 mM glucose + 10% dialyzed FBS, 46.1 µM

| Structure (SMILES) | cell viability [1] [%] | cell viability [2] [%] | cell viability [3] [%] | cell viability [4] [%] | cell viability [5] [%] | cell viability [6] [%] | cell viability [7] [%] | cell viability [8] [%] | cell viability [9] [%] | cell viability [10] [%] | cell viability [11] [%] | cell viability [12] [%] | cell viability [13] [%] | cell viability [14] [%] | cell viability [15] [%] | cell viability [16] [%] | cell viability [17] [%] | cell viability [18] [%] | cell viability [19] [%] | cell viability [20] [%] | cell viability [21] [%] | cell viability [22] [%] | cell viability [23] [%] | cell viability [24] [%] | cell viability [25] [%] | cell viability [26] [%] | cell viability [27] [%] | cell viability [28] [%] | cell viability [29] [%] | cell viability [30] [%] | cell viability [31] [%] | cell viability [32] [%] | cell viability [33] [%] |
| --- | --- | --- | --- | --- | --- | --- | --- | --- | --- | --- | --- | --- | --- | --- | --- | --- | --- | --- | --- | --- | --- | --- | --- | --- | --- | --- | --- | --- | --- | --- | --- | --- | --- |
| CC[C@@]1(O)C(=O)OC\C2=C1\C=C\3N(CC4=C3N=C5C=CC=CC5=C4)C2=O | 122 | 120 | 107 | 86.1 | 13.3 | 10.1 | 7.26 | 5.09 | 4.83 | 3.78 | 5.54 | 115 | 113 | 116 | 69.9 | 10.9 | 7.97 | 6.35 | 4.58 | 3.68 | 3.91 | 6.1 | 115 | 115 | 107 | 59.8 | 16.8 | 9.84 | 7.6 | 5.62 | 4.44 | 4.32 | 6.06 |
| COc1ccc(C2Sc3ccccc3N(CCN(C)C)C(=O)C2OC(C)=O)cc1 (configuration not stated) | 102 | 115 | 103 | 108 | 112 | 121 | 112 | 102 | 109 | 112 | 93.9 | 101 | 112 | 110 | 108 | 104 | 112 | 110 | 107 | 99.8 | 103 | 98.3 | 122 | 108 | 108 | 112 | 113 | 112 | 110 | 109 | 104 | 105 | 92.8 |
| CN(C)c1nc(Cc2ccc(NC(=O)c3ccc4ccccc4c3)cc2)nc(Cl)c1CC(=O)O | 112 | 112 | 101 | 101 | 108 | 124 | 104 | 99.4 | 84.8 | 84.8 | 69.3 | 117 | 107 | 124 | 115 | 117 | 114 | 107 | 98.7 | 87.2 | 69.8 | 73.6 | 106 | 113 | 113 | 111 | 106 | 107 | 105 | 104 | 84 | 68.7 | 61.5 |
| Nc1cc(C(F)(F)F)c(-c2cc(N3CCOCC3)nc(N3CCOCC3)n2)cn1 |  |  |  |  |  |  |  |  |  |  |  | 111 | 124 | 135 | 137 | 133 | 126 | 94.8 | 67.2 | 15.7 | 13.2 | 7.95 |  |  |  |  |  |  |  |  |  |  |  |
| CNC[C@H](O)c1cccc(O)c1 | 92 | 95.4 | 103 | 12.5 | 107 | 102 | 108 | 116 | 111 | 105 | 109 | 84.8 | 98.4 | 94.8 | 15.9 | 101 | 109 | 103 | 109 | 99.5 | 103 | 114 | 84.5 | 84.4 | 89.1 | 26.2 | 97.9 | 99.5 | 101 | 96.3 | 91.2 | 105 | 98 |
| COc1ccc2[nH]c([S+]([O-])Cc3ncc(C)c(OC)c3C)nc2c1 (configuration not stated) | 82.5 | 85.9 | 92.3 | 90 | 91.6 | 90 | 90.4 | 92 | 95.5 | 95.4 | 78.4 | 73.7 | 86.8 | 81.3 | 89.6 | 85.1 | 78 | 85.8 | 91.9 | 85.2 | 84.9 | 67.4 | 79.2 | 79.8 | 78.2 | 77 | 76.8 | 75.1 | 76.7 | 76.4 | 70.6 | 79.6 | 66.6 |
| CC(O)(C#Cc1ccc2c(c1)N(c1nc(N)ncc1Cl)CC2)c1nccs1 (configuration not stated) | 111 | 123 | 121 | 71 | 116 | 123 | 126 | 121 | 117 | 116 | 96.8 | 107 | 118 | 123 | 79.2 | 127 | 115 | 121 | 127 | 126 | 115 | 74.3 |  |  |  |  |  |  |  |  |  |  |  |
| CC[C@H](NC(=O)[C@H](C)NC)C(=O)N1C[C@@H](O)C[C@H]1Cc1c(-c2[nH]c3cc(F)ccc3c2C[C@@H]2C[C@H](O)CN2C(=O)[C@H](CC)NC(=O)[C@H](C)NC)[nH]c2cc(F)ccc12 | 115 | 129 | 124 | 137 | 137 | 125 | 139 | 131 | 32.8 | 31.3 | 110 |  |  |  |  |  |  |  |  |  |  |  |  |  |  |  |  |  |  |  |  |  |  |
| CC1(N2CCC(n3c([C@@H]4CCCNC4)nc4ccccc43)CC2)CCCCCCC1 | 101 | 95.4 | 106 | 111 | 113 | 115 | 113 | 115 | 108 | 88 | 55.6 | 98.3 | 95 | 104 | 115 | 110 | 111 | 124 | 118 | 110 | 86.9 | 67.9 | 97.1 | 101 | 104 | 115 | 112 | 107 | 110 | 109 | 109 | 81.7 | 65.9 |
